The values that follow come from patent US20090155186A1, “Compositions and methods for treating inflammatory conditions” (SIGNUM BIOSCENCES, INC., priority 2005, published 2009).

For series [1], the system named is mouse ear. As to the kind of experiment: AFC in acetone alone, mouse ear edema (irritancy test). The series is classed as in vivo. To be noted: topical, dose up to about 32 mg/20 μl, 5.5 hours. The protocol: Each contralateral ear was treated with only acetone in the same manner. The mice then were returned to their cages. After 5.5 hours, mice were sacrificed and 6 mm punches were taken from each ear and weighed. Edema response was expressed as the percent increase in the treated ear's weight over the untreated (acetone, vehicle only) ear.

Another series concerns TPA-induced edema. Nature of the series: TPA-induced edema, murine ear acute contact irritation model. In kind it is in vivo, mouse. Particulars: 2 μg TPA in 20 μl acetone; AFC in acetone 15 min later; 5.5 hours. From the text: (See Carlson, R. P., et al., Modulation of mouse ear edema by cyclooxygenase and lipoxygenase inhibitors and other pharmacologic agents. Agents Actions, 1985. 17(2): 197-204; Kuehl, F. A., Jr., et al., Role of prostaglandin endoperoxide PGG2 in inflammatory processes. Nature, 1977. 265(5590): 170-3; Trancik R J, L. N., Evaluation of topical nonsteroidal anti-inflammatory agents, in Models in Dermatology, L. Maibach, Editor. 1985, Karger. pp, 35-42; and Tramposch, K. M., Skin Inflammation, in In Vivo Models of Inflammation, M. L. Morgan D W, Editor. 1999, Birkhauser Verlag. pp. 179-204.)
The standard agents for initiating inflammation were the phorbol ester, tetradecanoylphorbol acetate, (TPA) and arachidonic acid (AA). TPA produces a greater and more prolonged neutrophil infiltration response than AA (See Rao, T. S., et al., Comparative evaluation of arachidonic acid (AA)-and tetradecanoylphorbol acetate (TPA)-induced dermal inflammation. Inflammation, 1993.17(6): 72341.) TPA-induced inflammation is the preferred agent and was used for this example.
In order to assess the effects of the inventive composition on TPA-induced edema, 2 μg of TPA in 20 μl acetone was applied with the aid of a micropipetter onto both ears of each of 6 mice. The mice were returned to their cages. […]

For series [2], the system named is TPA-induced MPO activity. Nature of the series: TPA-induced neutrophil infiltration, MPO assay of mouse ears. In kind it is in vivo.
Experimental: MPO enzyme activity of the ears was assayed using the technique detailed by Griffiths and coworkers (1988). To conduct the assay, each ear was homogenized in 1.0 ml of cetyltrimethylammonium bromide buffer for 5 sec using a Pro 200 tissue blender (Pro Scientific, Inc., Oxford, Conn.) at setting 5. These samples then were centrifuged for 5 minutes at 15,000 rpm in a 5415 Eppendorf microcentrifuge. Triplicate 20 microliter aliquots of supernatant were added to 200 microliters of reaction mixture (1.25 ml IM Potassium Phosphate, 4.175 mg o-dianisidine dihydrochloride and 5 μl of 1% peroxide in a final volume of 25 ml). Absorbance at 450 nm then was measured at room temperature at three 60 second intervals using Bio-Kinetics Reader EL 312E (Bio-Tek Instruments). Activity of the homogenate, which was determined by a Bradford assay (BioRad Protein Assay, BioRad Laboratories, Inc. Hercules, Calif.), was expressed as units MPO per mg tissue +/−standard error.
Two micrograms (2 μg) of TPA in 20 μl of acetone was applied onto both ears of each mouse to induce neutrophil infiltration. After 15 minutes, varying concentrations of AFC in acetone were applied to the right ear of each mouse. After 24 hours, the mice were sacrificed. The ears were removed and the efficacy of AFC on neutrophil infiltration was assessed by an MPO assay and histological analysis.
The effectiveness of AFC treatment at various times before and after TPA application was assessed using MPO as a measure of neutrophil infiltration. […]
Series [3] relates to TPA-induced neutrophil infiltration. As to the kind of experiment: TPA-induced neutrophil infiltration, neutrophil counting assay (H&E histology). In kind it is in vivo, mouse. The protocol: Neutrophil-infiltration Assay: Swiss Webster male mice (n=6) were treated with 1 μg/20 μl of TPA as described above in order to assess whether or not TPA induced neutrophil infiltration Acetone was used as a control. TPA was administered as described above. The mice were returned to their cages for 24 hrs to allow neutrophil infiltration, then sacrificed by cervical dislocation. The ears were removed immediately for punch biopsy, and punches were fixed for subsequent histological analysis and MPO enzymatic assay.
Neutrophil Counting Assay: Ear punches buffered in 10% formalin in PBS at ambient temperature for a minimum of 24 hrs. were sectioned and stained with Hematoxilin & Eosin (“H&E”). The number of neutrophils, identified by their multilobular nuclei, in 6 randomly 100× magnified fields distributed along the length of the ear were counted manually The results are expressed as the average number per field for each ear.
Two micrograms (2 μg) of TPA in 20 μl of acetone was applied onto both ears of each mouse to induce neutrophil infiltration. […] After 24 hours, the mice were sacrificed.

The next series concerns TPA-induced erythema. As to the kind of experiment: TPA-induced erythema in mouse ear (photograph). In kind it is in vivo. Particulars: 1 μg/20 μl TPA; 1 mg/20 μl AFC after 1 hour; photo 23 hours later. The protocol:
For this example, both ears of a mouse were treated with a 1 μg/20 μl dose of TPA in acetone. […] The photo was taken 23 hours later using a Nikon D70 digital camera.

Another series has as its system human skin. Nature of the series: SDS patch irritation on human skin with pre-applied AFC. In kind it is in vivo. To be noted: AFC 140 mM aqueous formulation pre-applied. The procedure: An irritant was applied to the middle of the upper back of a human subject using a 0.2 ml 20% SDS solution and a Hill-Top Chamber patch with Webril pad. […] Patches 1a and 2a were removed after 2 hours, while patches 1b and 2b were removed after 2 hours and 30 minutes. High levels of irritation were visible in patch sites 2a and 2b.

A further series deals with chronic irritation. Nature of the series: Chronic irritation in mice by multiple TPA applications. In kind it is in vivo, mouse. To be noted: AFC in acetone, contemplated result. The protocol: The effectiveness of the inventive compositions against established chronic irritation can be assayed using a modification of the technique of Stanley P L et al., Mouse skin inflammation induced by multiple topical application 12-O-tetradeconoyphorbol-13-acetate. Skin Pharmacol. 1991, 4(4):262-71. Both ears of each mouse are treated with TPA in acetone, as above, in a series of 5 applications on the mornings of days 0, 2, 4, 7, and 9. […] Punches of the ears then are taken the afternoon of the tenth day and prepared, as above, for the edema assay and the infiltration of neutrophils. Total granulocyte infiltration then is assayed by measuring MPO activity. Macrophage infiltration is determined immunocytologically using the MOMA-2 antibody. Hydrocortisone, which is known to reduce inflammatory edema granulation infiltration and microphage infiltration, can be used as a positive control.

Series [4] has as its system delayed-type hypersensitivity. As to the kind of experiment: DNFB delayed-type hypersensitivity mouse ear model. The series is classed as in vivo. Particulars: AFC 0.5 hour before or 15 min after challenge, contemplated result. From the text:
The mouse ear model, described above, can be modified to assay the effect of anti-inflammatory agents in an immune based inflammation model (See Tramposch, K. M., Skin Inflammation, in In Vivo Models of Inflammation, M. L. Morgan D W, Editor. 1999, Birkhauser Verlag. pp. 179-20 and Chapman, J. P., Z. Ruben, and G. M. Butchko, Histology of and quantitative assays for oxazolone-induced allergic contact dermatitis in mice. Am J Dermatopathol, 1986. 8(2): 130-8). In this model, a sensitizing dose of dinitrofluorobenzene (DNFB) 1-3% in acetone can be applied topically according to a modification of the method by Back et al. to the shaved bellies of mice to elicit an immune response. (See Back, O. and T. Egelrud, Topical glucocorticoids and suppression of contact sensitivity. A mouse bioassay of anti-inflammatory effects. Br J Dermatol, 1985. 112(5): 539-45 and Bailey, S. C., et al., A novel contact hypersensitivity model for rank-ordering formulated corticosteroids. Inflamm Res, 1995. 44 Suppl 2: S162-3.) Mice then are challenged on day 5 with 40 μl of 0.5-1% DNFB to each ear. […] The ears are assayed for edema or neutrophil infiltration 5 hours later. Dexamethasone is used as a positive control. Five days later, the ears are challenged topically with a dose of DNFB insufficient to produce contact irritation. Simultaneously, cell infiltration studies are initiated. […]

The target in series [5] is membrane-associated polyisoprenoid methyl transferase (Homo sapiens, UniProt O60725). To be noted: background statement; cited from earlier work.
membrane-associated polyisoprenoid methyl transferase, sequence (O60725 whole entry): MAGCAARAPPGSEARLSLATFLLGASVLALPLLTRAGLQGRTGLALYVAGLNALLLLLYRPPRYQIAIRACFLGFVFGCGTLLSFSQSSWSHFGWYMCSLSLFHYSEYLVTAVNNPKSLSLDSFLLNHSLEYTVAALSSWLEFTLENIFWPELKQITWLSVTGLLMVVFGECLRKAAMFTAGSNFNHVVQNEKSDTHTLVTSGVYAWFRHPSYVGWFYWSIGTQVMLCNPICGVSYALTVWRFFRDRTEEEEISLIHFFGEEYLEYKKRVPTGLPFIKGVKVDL
For series [6], the system named is neutrophil, macrophage, and platelet responses. To be noted: in vitro, background statement; cited from earlier work.
Series [7] has as its system TPA-induced MPO activity. To be noted: mouse, in vivo.
Experimental: These included dexamethasone, a steroid, and indomethasone, a non-steroid anti-inflammatory drug, which targets cycloxygenases. The action of AFC in this model was, therefore, compared to that of dexamethasone and indomethasone. Each of these agents were tested using the same protocols used to test AFC.
In series [8] the test system is mouse ear. Nature of the series: Induction of mouse ear edema by TPA (dose response for irritant). In kind it is in vivo. To be noted: of the acetone-treated ear; TPA 0.25 to 1.75 μg/20 μl in acetone, topical, 5.5 hours. The protocol:
A dose response range for TPA, a compound known to induce edema, was determined. TPA produces an increase in edema (ear swelling) that reaches a maximum at 6 hours.
Increasing concentrations of TPA dissolved in acetone were applied with the aid of a micropipetter onto the right ear of each of the five 6-8 week old, male Swiss Webster mice used in this analysis. Ten microliters (10 μl) were spread evenly onto the inner and outer surfaces using the pipette tip. The mice then were returned to their cages. The contralateral ear was treated only with acetone. After 5.5 hours, the mice were sacrificed and 6 mm punches were taken from each ear and weighed. Edema response was expressed as a percent increase in the treated ear's weight over the untreated ear. The dose response curve, as well as an ED50 value, was determined using the Lichtfield method (Lichtfield J T W. F., A simplified method of evaluating dose-effect experiments, Journal of Pharmacology and Experimental Therapeutics, 1948, 96: 99-113).

Where [9] appears, read: 2 μg TPA in 20 μl acetone, AFC 15 min later, 24 hours.

A value given as a limit tells only on which side of the number the result lay.

As for `CC(=O)N[C@@H](CSCC=C(C)CCC=C(C)CCC=C(C)C)C(=O)O` (stereo in doubt) [AFC, N-acetyl-5-trans, trans-farnesyl-L-cysteine], the “edema response (ear punch biopsy weight) to AFC alone” value in the series with mouse ear [1] is listed as “no effect”. For the same compound, in the series with TPA-induced edema, the “ED50 for TPA-induced edema inhibition” value was “approximately 0.44 mg/20 μl” and the “maximum reduction in TPA-induced edema” value is 80%. Further, the “effect on TPA-induced MPO activity at different application times” value in the series with TPA-induced MPO activity [2] (1 μg/20 μl TPA, 1 mg/20 μl AFC at various times before and after TPA) is “efficacy of AFC treatment prior to, simultaneous with, or after exposure of skin to TPA”. Also, in the series on TPA-induced MPO activity [2] (setting [9]), the “ED50 for inhibition of TPA-induced MPO activity” value turned out to be 0.065 mg/20 μl and the “inhibition of TPA-induced increases in MPO activity” value is listed as > 80%. In [3] (1.0 mg/20 μl AFC, TPA acute contact irritation, statistically significant, paired t-test), the “reduction in dermal neutrophils (counts)” value was determined as 80%. In [3] (TPA pretreated ears, 24 hours, FIG. 5), the “neutrophils in histology of AFC treated ear” value is listed as “substantial reduction of neutrophils”. The TPA-induced erythema entry in the series with TPA-induced erythema was “An effect of the AFC inventive composition on TPA-induced erythema was observed”. In addition, in the series with human skin (20% SDS patch removed after 2 hours and 30 minutes), the “skin irritation at patch site 1b” value was “mild response”. Also, the “skin irritation at patch site 1a” value with human skin (20% SDS patch removed after 2 hours) is “normal skin”. Moreover, the “chronic edema and neutrophil number” value with chronic irritation is “reduces chronic edema and neutrophil number”. Further, the “edema and neutrophil infiltration in DNFB challenge” value in series [4] is “effective in reducing both edema and neutrophil infiltration”. In addition, in series [5], the “inhibition of polyisoprenoid methyl transferase” value is listed as “inhibit membrane-associated polyisoprenoid methyl transferase”. Moreover, the “neutrophil, macrophage and platelet responses” value in series [6] is “block some neutrophil, macrophage, and platelet responses in vitro”.

Consider `C[C@@H]1C[C@H]2[C@@H]3CCC4=CC(=O)C=C[C@]4(C)[C@@]3(F)[C@@H](O)C[C@]2(C)[C@@]1(O)C(=O)CO` [dexamethasone], for which the “MPO activity in the contralateral vehicle-treated ear (systemic effect)” value with TPA-induced MPO activity [7] is given as “increasing inhibition of MPO activity”.

On to `COc1ccc2c(c1)c(CC(=O)O)c(C)n2C(=O)c1ccc(Cl)cc1` [indomethasone], for which the “MPO activity in the contralateral vehicle-treated ear (systemic effect)” value in the series with TPA-induced MPO activity [7] is reported as “increasing inhibition of MPO activity”.

tetradecanoylphorbol acetate [TPA]: in the series with mouse ear [8], the “maximum increase in ear weight (edema)” value is “approximately 150%”.
